Measured values published in paper PMC7811125, “Red-shifted click beetle luciferase mutant expands the multicolor bioluminescent palette for deep tissue imaging” (iScience, 2020).
Where a name gives a salt, the structure may show the parent alone.

Target: T1, Akaluc (Photinus pyralis, UniProt P08659)
T1 construct: Akaluc, multiply mutated firefly luciferase; stably expressed in HEK cells
Experiment: live-cell bioluminescence imaging
Assay type: cell-based
Details: HEK cells expressing Akaluc; 0.1 mM substrate; 660 nm filter

T1 sequence (P08659 whole entry): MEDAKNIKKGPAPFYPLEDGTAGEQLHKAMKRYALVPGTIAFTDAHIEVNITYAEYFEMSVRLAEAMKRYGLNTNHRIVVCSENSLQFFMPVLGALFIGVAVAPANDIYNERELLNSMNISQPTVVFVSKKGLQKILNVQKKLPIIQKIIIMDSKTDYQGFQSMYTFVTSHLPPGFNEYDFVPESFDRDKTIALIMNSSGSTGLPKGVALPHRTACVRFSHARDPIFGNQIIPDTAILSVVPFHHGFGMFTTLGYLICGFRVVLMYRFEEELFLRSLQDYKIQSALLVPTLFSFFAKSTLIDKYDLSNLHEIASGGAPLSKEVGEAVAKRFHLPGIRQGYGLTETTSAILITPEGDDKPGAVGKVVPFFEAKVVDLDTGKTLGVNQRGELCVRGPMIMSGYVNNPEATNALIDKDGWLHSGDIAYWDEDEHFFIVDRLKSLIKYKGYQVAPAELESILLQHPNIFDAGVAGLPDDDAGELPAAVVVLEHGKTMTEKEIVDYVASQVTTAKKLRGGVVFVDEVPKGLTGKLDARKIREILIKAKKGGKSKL

CN(C)c1ccc(/C=C/C=C/C2=N[C@@H](C(=O)O)CS2)cc1 [AkaLumine-HCl]
live-cell bioluminescence imaging: Akaluc yielded the brightest photon emission with AkaLumine-HCl
